Experimental data: patent publication US7495104B2, “Quinoline or quinazoline derivatives inhibiting auto-phosphorylation of fibroblast growth factor receptors” (Kirin Beer Kabushiki Kaisha, priority 2001, dated 2009)
Where a name gives a salt, the structure may show the parent alone.

Columns and labels:
[1] = system: Human gastric cancer cells (OCUM-2MD3); assay: Tumor growth inhibitory activity against human gastric cancer cells (OCUM-2MD3) in nude mice (Pharmacological Test Example 2); assay type: in vivo; conditions: unit dose 10 mg/kg, oral, twice a day for 5 days
Description: (§1) Human gastric cancer cells (OCUM-2MD3) (kindly provided by Dr. Kosei Hirakawa, Osaka City University) were transplanted into nude mice. […] The test compound suspended in 0.5% methylcellulose was orally administered every day twice a day for 5 days (except for the first day on which the suspension was administered once a day).
(§2) Only 0.5% methylcellulose was administered to the control group in the manner as in the test groups. The tumor growth inhibition rate (TGIR) was calculated as follows: The tumor growth inhibition rate (TGIR)=(1−TX/CX)×100 wherein CX represents the volume of tumor at day X for the control group when the tumor volume at the day of the start of the administration was presumed to be 1; and TX represents the volume of tumor for test compound administration groups.

[2] = system: Human gastric cancer cells (OCUM-2MD3); assay: Tumor growth inhibitory activity against human gastric cancer cells (OCUM-2MD3) in nude mice (Pharmacological Test Example 3); assay type: in vivo; conditions: Mus musculus, read-out: TGIR (tumor growth inhibition rate); for inhibition in vivo at 10 mg: 240 h, dose per day 10 mg × 2, oral; for inhibition in vivo at 25 mg: 600 h, dose per day 25 mg × 1, oral
Description: as §1, §2
Tumor growth inhibitory activity was measured in the same manner as in Pharmacological Test Example 2, except that oral administration was carried out once a day or twice a day (except for the first day on which the suspension was administered once a day).

Bek = Bek (Homo sapiens, UniProt P21802); assay: Inhibitory activity against Bek-autophosphorylation using ELISA method in OCUM-2MD3 cells; assay type: cell-based; conditions: 1 hr with compound, read-out: IC50 (concentration necessary for inhibiting 50% of Bek-phosphorylation)
Summary of the method: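 Sandwich ELISA (anti-phosphotyrosine capture, anti-Bek detection, peroxidase, 450 nm) measured Bek autophosphorylation in OCUM-2MD3 lysates after 1 hr compound treatment at 37° C in 0.1% serum medium. IC50 derived by scaling between no-drug (100%) and excess positive control at 1000 nM (0%).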

Bek, sequence (P21802 431-767 limits assumed): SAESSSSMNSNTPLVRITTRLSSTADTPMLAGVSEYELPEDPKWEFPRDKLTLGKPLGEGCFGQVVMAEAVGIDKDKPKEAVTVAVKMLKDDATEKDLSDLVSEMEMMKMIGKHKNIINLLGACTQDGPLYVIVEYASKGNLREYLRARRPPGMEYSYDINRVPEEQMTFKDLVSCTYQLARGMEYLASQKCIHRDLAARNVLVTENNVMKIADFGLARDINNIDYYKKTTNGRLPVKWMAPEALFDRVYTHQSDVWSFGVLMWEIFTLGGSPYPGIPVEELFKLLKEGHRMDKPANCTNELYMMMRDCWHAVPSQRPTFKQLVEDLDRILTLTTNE

Row | SMILES | inhibition in vivo at 10 mg [2] [%] | IC50 (Bek) [nM] | also measured
1 | COc1cc2c(Oc3ccc(Nc4ccc(C(C)(C)C)cc4)cc3)ccnc2cc1OCCN1CCOCC1 [Compound 37 (hydrochloride)] | – | – | TGIR (tumor growth inhibition rate) [1]: 35%
2 | COc1cc2c(Oc3ccc(Nc4ccc(C(C)(C)C)cc4)cc3)ccnc2cc1OCC(O)CN1CCOCC1 (stereo not shown) [Compound 59 (hydrochloride)] | – | – | TGIR (tumor growth inhibition rate) [1]: 16%
3 | COc1cc2c(Oc3ccc(Nc4ccc(C(C)(C)C)cc4)cc3)ccnc2cc1OCC[N+]1([O-])CCOCC1 [Compound 83, 4-{2-[(4-{4-[4-(Tert-butyl)anilino]phenoxy}-6-methoxy-7-quinolyl)-oxy]ethyl}-1,4-oxazinan-4-ium-4-oleate] | 34 | – | –
4 | COc1cc2c(Oc3ccc(Nc4ccc(C(C)(C)C)cc4)cc3Cl)ccnc2cc1OCCN1CCOCC1 [Compound 84, N-[4-(Tert-butyl)phenyl]-N-(3-chloro-4-{[6-methoxy-7-(2-morpholinoethoxy)-4-quinolyl]oxy}phenyl)amine] | 33 | – | –
5 | COc1cc2c(Oc3ccc(Nc4ccc(C(C)(C)C)cc4)cc3)ccnc2cc1OCCNCCO [Compound 85, 2-({2-[(4-{4-[4-(Tert-butyl)anilino]phenoxy}-6-methoxy-7-quinolyl)oxy]ethyl}amino)-1-ethanol] | 43 | – | –
6 | COc1cc2nccc(Oc3ccc(Nc4ccc(C(C)(C)C)cc4)cc3)c2cc1OCC(O)CN1CCOCC1 (stereo not shown) [Compound 86, 1-[(4-{4-[4-(Tert-butyl)anilino]phenoxy}-7-methoxy-6-quinolyl)-oxy]-3-morpholino-2-propanol] | 30 | – | –
7 | COc1cc2c(Oc3ccc(NC(=O)NCCC(C)(C)C)c(F)c3)ccnc2cc1OCCN1CCOCC1 [Compound 87, 1-(3,3-Dimethyl-butyl)-3-{2-fluoro-4-[6-methoxy-7-(2-morpholin-4-yl-ethoxy)-quinolin-4-yloxy]-phenyl}-urea] | 33 | < 10 | inhibition in vivo at 25 mg [2]: 54%
8 | COc1cc2c(Oc3ccc(NC(=O)NCCC(C)(C)C)c(F)c3)ccnc2cc1OCCCN1CCOCC1 [Compound 88, 1-(3,3-Dimethyl-butyl)-3-{2-fluoro-4-[6-methoxy-7-(3-morpholin-4-yl-propoxy)-quinolin-4-yloxy]-phenyl}-urea hydrochloride] | 35 | 10.8 | –
9 | COc1cc2c(Oc3ccc(NC(=O)NCCC(C)(C)C)c(F)c3)ccnc2cc1OCC(O)CN1CCOCC1 (stereo not shown) [Compound 89, 1-(3,3-Dimethyl-butyl)-3-{2-fluoro-4-[7-(2-hydroxy-3-morpholin-4-yl-propoxy)-6-methoxy-quinolin-4-yloxy]-phenyl}-urea hydrochloride] | 29 | < 10 | –
10 | COc1cc2nccc(Oc3ccc(NC(=O)NCCC(C)(C)C)cc3)c2cc1OCCN1CCOCC1 [Compound 90, 1-(3,3-Dimethyl-butyl)-3-{4-[7-methoxy-6-(2-morpholin-4-yl-ethoxy)-quinolin-4-yloxy]-phenyl}-urea] | 36 | 12.6 | –
11 | COc1cc2c(Oc3ccc(NC(=O)NCCC(C)(C)C)cc3)ccnc2cc1OCCN1CCCCC1 [Compound 91, 1-(3,3-Dimethyl-butyl)-3-{4-[6-methoxy-7-(2-piperidin-1-yl-ethoxy)-quinolin-4-yloxy]-phenyl}-urea hydrochloride] | – | 18.4 | inhibition in vivo at 25 mg [2]: 28%
12 | COc1cc2c(Oc3ccc(NC(=O)NCCC(C)(C)C)cc3)ccnc2cc1OCCCN1CCC(CO)CC1 [Compound 94, 1-(3,3-Dimethyl-butyl)-3-(4-{7-[3-(4-hydroxymethyl-piperidin-1-yl)-propoxy]-6-methoxy-quinolin-4-yloxy}-phenyl)-urea] | 40 | – | –
13 | COc1cc2c(Oc3ccc(NC(=O)NCCC(C)(C)C)c(F)c3)ccnc2cc1OCCN1CC(C)OC(C)C1 (stereo not shown) [Compound 97, 1-(3,3-Dimethyl-butyl)-3-(4-{7-[2-(2,6-dimethyl-morpholin-4-yl)-ethoxy]-6-methoxy-quinolin-4-yloxy}-2-fluoro-phenyl)-urea] | – | < 10 | inhibition in vivo at 25 mg [2]: 48%
14 | COc1cc2c(Oc3ccc(NC(=O)NCCC(C)(C)C)cc3F)ccnc2cc1OCCN1CCOCC1 [Compound 98, 1-(3,3-Dimethyl-butyl)-3-{3-fluoro-4-[6-methoxy-7-(2-morpholin-4-yl-ethoxy)-quinolin-4-yloxy]-phenyl}-urea] | – | < 10 | inhibition in vivo at 25 mg [2]: 48%
15 | COc1cc2c(Oc3ccc(NC(=O)NCCC(C)(C)C)c(F)c3)ccnc2cc1OCCN1CCCCC1 [Compound 99, 1-(3,3-Dimethyl-butyl)-3-{2-fluoro-4-[6-methoxy-7-(2-piperidin-1-yl-ethoxy)-quinolin-4-yloxy]-phenyl}-urea] | – | 28.6 | inhibition in vivo at 25 mg [2]: 63%
16 | COc1cc2c(Oc3ccc(NC(=O)NCCC(C)(C)C)c(Cl)c3)ccnc2cc1OCCN1CCCCC1 [Compound 100, 1-{2-Chloro-4-[6-methoxy-7-(2-piperidin-1-yl-ethoxy)-quinolin-4-yloxy]-phenyl}-3-(3,3-dimethyl-butyl)-urea] | – | 175 | inhibition in vivo at 25 mg [2]: 43%
17 | COc1cc2c(Oc3ccc(NC(=O)NCCC(C)(C)C)c(Cl)c3)ccnc2cc1OCCN1CCOCC1 [Compound 114, 1-{2-Chloro-4-[6-methoxy-7-(2-morpholin-4-yl-ethoxy)-quinolin-4-yloxy]-phenyl}-3-(3,3-dimethyl-butyl)-urea] | – | 20.1 | inhibition in vivo at 30 mg ([2]; 720 h, dose per day 30 mg × 2, oral): 48%
18 | COc1cc2c(Oc3ccc(Nc4ccc(C(C)(C)C)cc4)cc3)ccnc2cc1OCCN(CCO)C(C)C [Compound 367, 2-[(2-{4-[4-(4-Tert-butyl-phenylamino)-phenoxy]-6-methoxy-quinolin-7-yloxy}-ethyl)-isopropyl-amino]-ethanol] | – | 468 | –
19 | COc1cc2c(Oc3ccc(NC(=O)NCCC(C)(C)C)cc3)ccnc2cc1OCCN(CCO)Cc1ccccc1 [Compound 368, 1-[4-(7-{2-[Benzyl-(2-hydroxy-ethyl)-amino]-ethoxy}-6-methoxy-quinolin-4-yloxy)-phenyl]-3-(3,3-dimethyl-butyl)-urea] | – | 157 | –
20 | CCCN(CCO)CCOc1cc2nccc(Oc3ccc(NC(=O)NCCC(C)(C)C)cc3)c2cc1OC [Compound 369, 1-(3,3-Dimethyl-butyl)-3-[4-(7-{2-[(2-hydroxy-ethyl)-propyl-amino]-ethoxy}-6-methoxy-quinolin-4-yloxy)-phenyl]-urea] | – | 42.3 | –
21 | COc1cc2c(Oc3ccc(NC(=O)NCCC(C)(C)C)cc3)ccnc2cc1OCCN(CCO)C(C)C [Compound 370, 1-(3,3-Dimethyl-butyl)-3-[4-(7-{2-[(2-hydroxy-ethyl)-isopropyl-amino]-ethoxy}-6-methoxy-quinolin-4-yloxy)-phenyl]-urea] | – | 130 | –
22 | COc1cc2c(Oc3ccc(NC(=O)NCCC(C)(C)C)cc3)ccnc2cc1OCCN1CCC(CO)CC1 [Compound 371, 1-(3,3-Dimethyl-butyl)-3-(4-{7-[2-(4-hydroxymethyl-piperidin-1-yl)-ethoxy]-6-methoxy-quinolin-4-yloxy}-phenyl)-urea] | – | < 10 | –
23 | COc1cc2c(Oc3ccc(NC(=O)NCCC(C)(C)C)cc3)ccnc2cc1OCCNCCO [Compound 372, 1-(3,3-Dimethyl-butyl)-3-(4-{7-[2-(2-hydroxy-ethylamino)-ethoxy]-6-methoxy-quinolin-4-yloxy}-phenyl)-urea] | – | < 10 | –
24 | COc1cc2c(Oc3ccc(NC(=O)NCCC(C)(C)C)cc3)ccnc2cc1OCCN1CCC(O)CC1 [Compound 373, 1-(3,3-Dimethyl-butyl)-3-(4-{7-[2-(4-hydroxy-piperidin-1-yl)-ethoxy]-6-methoxy-quinolin-4-yloxy}-phenyl)-urea] | – | < 10 | –
25 | COc1cc2nccc(Oc3ccc(NC(=O)NCCC(C)(C)C)cc3Cl)c2cc1OC [Compound 374, 1-[3-Chloro-4-(6,7-dimethoxy-quinolin-4-yloxy)-phenyl]-3-(3,3-dimethyl-butyl)-urea] | – | 32.8 | –
26 | COc1cc2c(Oc3ccc(NC(=O)NCCC(C)(C)C)cc3)ccnc2cc1OCC(=O)N1CCOCC1 [Compound 375, 1-(3,3-Dimethyl-butyl)-3-{4-[6-methoxy-7-(2-morpholin-4-yl-2-oxo-ethoxy)-quinolin-4-yloxy]-phenyl}-urea] | – | 28 | –
